Reference: patent US20210290597A1, “METHOD OF TREATING A CONDITION ASSOCIATED WITH NEURODEGENERATION USING INHIBITORS OF OAT3” (Neuropore Therapies, Inc., priority 2018, published 2021)
Where two headings read alike, the source gives them in different places.

Assays:
OAT3 = molecular target: T1, OAT3 (Homo sapiens, UniProt Q8TCC7); assay: Further OAT3 uptake inhibition assay (Table 2); format: cell-based; details: human, MDCK-II cells expressing human OAT3, probe 10 μM PAH (p-aminohippurate); compound 1 μM; PAH 10 μM; mean and SD of triplicate
T1 construct: expressed in transfected cells; host or cells: MDCK-II
T1 sequence (Q8TCC7 1-542): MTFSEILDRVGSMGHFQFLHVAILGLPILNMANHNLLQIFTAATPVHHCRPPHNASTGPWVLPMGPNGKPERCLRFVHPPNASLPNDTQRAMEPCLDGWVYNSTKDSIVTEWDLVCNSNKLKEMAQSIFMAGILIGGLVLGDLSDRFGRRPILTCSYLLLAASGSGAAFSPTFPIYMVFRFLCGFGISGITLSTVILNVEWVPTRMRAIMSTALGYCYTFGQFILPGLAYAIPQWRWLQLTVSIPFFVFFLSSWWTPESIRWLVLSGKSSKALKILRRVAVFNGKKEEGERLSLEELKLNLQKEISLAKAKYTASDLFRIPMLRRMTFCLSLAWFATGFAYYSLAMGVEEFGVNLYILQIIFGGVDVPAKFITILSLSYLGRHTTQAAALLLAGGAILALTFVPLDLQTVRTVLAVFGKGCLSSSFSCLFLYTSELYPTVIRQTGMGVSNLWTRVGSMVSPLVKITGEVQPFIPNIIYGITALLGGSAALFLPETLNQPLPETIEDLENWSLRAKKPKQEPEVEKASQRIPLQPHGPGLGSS
Experimental: (§1) In a further assay, the effects of several other compounds (including compounds 2, 3, and 4) were assessed against OAT3. The assay was carried out using a similar procedure as described above, using para-aminohippurate (PAH) and estrone-3-sulfate (E3S) as the substrates for measuring OAT3-mediated transport. […] MDCK-II cells were grown in 96-well cell culture plates, and the cell plates are maintained at 37° C. in 5% CO2 atmosphere prior to initiation of the transport experiment. MDCK-II cells were maintained in DMEM with low glucose and 10% FBS. Cells passages up to 40 are seeded at 60K±10K cells/well on 96-well, transwell membrane plates approximately 24 hours before transfection. Transport assays were carried out approximately 48 hours after transfection. Radio-labeled para-aminohippurate ([3H]-PAH) and estrone-3-sulfate (E3S) were used as substrates for measuring OAT3-mediated transport, where the transport of the substrate was determined by radiometric detection. Probenecid was used as a reference inhibitor. Transport study samples were run in triplicate.
(§2) For uptake assays, the net transporter-mediated uptake rate (V) of the substrate by each SLC transporter was calculated as follows:
(§3) Transporter-mediated uptake rate(pmol/min/cm^2)=((Cellular accumulation in cells expressing the transporter)−(Mean cellular accumulation in control cells))/Incubation time.
(§4) Percent inhibition was calculated by dividing the transporter-mediated uptake rate in presence of the test article or the reference inhibitor by the transporter-mediated uptake rate in presence of vehicle control:
(§5) Percent inhibition=100−(100×(transporter-mediated uptake rate)with inhibitor/(transporter-mediated uptake rate)vehicle control)
(§6) For uptake assays, statistical analyses using an unpaired t test was performed between transporter-mediated uptake rate or ATP-dependent transport rate of probe substrate with vehicle control and the inhibitor. A p value of <0.05 was considered statistically significant.
(§7) Table 2 summarizes the inhibitory activity of these compounds against OAT3 in the uptake of probe substrate PAH (p-aminohippurate) or E3S (estrone-3-sulfate). The percent inhibition values were determined by testing compounds at a single concentration of 1 μM with a PAH concentration of 10 μM. Data represent the mean and standard deviation of triplicate samples. The IC50 values were calculated by means of a concentration response curve with a compound concentration range of 0.03-10 μM and a probe substrate concentration of 10 μM PAH or 0.1 μM E3S. The percent inhibition at the various concentrations was run in triplicate and the IC50 value was determined by non-linear regression using GraphPad Prism.

human transporter OAT3 = molecular target: T2, human transporter OAT3 (Homo sapiens, UniProt Q8TCC7); assay: Further OAT3 uptake inhibition assay (Table 2); format: cell-based; details: compound 0.03-10 μM
T2 construct: expressed in transfected cells; host or cells: MDCK-II
T2 sequence (Q8TCC7 1-542): T1 sequence (Q8TCC7 1-542)
Experimental: as §1, §2, §3, §4, §5, §6, §7

monomeric ASYN = assay: Monomeric ASYN in brain homogenates, L61 ASYN transgenic mice (ProteinSimple western); format: in vivo; details: 1, 5 or 10 mg/kg per day i.p., 1 month
Experimental: Multiple in vivo administration studies of Compound 1 were carried out in the Line 61 (L61) mThy1-alpha-synuclein transgenic mouse model of Parkinson's disease (PD). The mThy1-alpha-synuclein transgenic mouse model overexpresses wild-type human ASYN under the Thy-1 promoter (commonly referred to as Line 61 transgenic mice; Rockenstein et al., 2002). […]
Alpha-synuclein (ASYN) is a neuronal protein whose dysregulation has been implicated in the pathogenesis of PD. The effects of Compound 1 on alpha-synuclein aggregation were assessed in both L61 ASYN transgenic and non-transgenic mice in a 1 month administration study. […] At the end of one month, the mice were sacrificed, and immunohistochemical (IHC) detection of total alpha-synuclein deposits, insoluble alpha-synuclein deposits (PK+resistant), microtubule-associated protein 1A/1B-light chain 3 (LC3), and monomeric alpha-synuclein levels were assessed in the harvested brain tissues.
Biochemical evaluations were conducted using a ProteinSimple© western biochemical evaluation. Briefly, samples were mixed with pre-calculated volumes of 0.1× Sample Buffer and 5× Fluorescent Master Mix to make a final sample concentration of 0.4 mg/mL in 10 μL solution for signal optimization and evaporation reduction. […]

inhibition at 1 μM (OAT3): 80.3%
IC50 (human transporter OAT3; 0.1 μM E3S, read-out: OAT3 inhibition substrate = E3S (IC50)): 891 nM
IC50 (human transporter OAT3; 10 μM PAH, read-out: OAT3 inhibition substrate = PAH (IC50)): 252 nM
SMILES: O=S(=O)(c1ccc(-n2cn[nH]c2=S)cc1)c1ccc(Cl)c(C(F)(F)F)c1 [Compound 1, 4-(4-((4-chloro-3-(trifluoromethyl)phenyl)sulfonyl)phenyl)-2,4-dihydro-3H-1,2,4-triazole-3-thione]
cortical and hippocampal levels of monomeric ASYN in cytosolic fraction of brain homogenates (monomeric ASYN): reduced
